From patent US20230074545A1, “TREATMENT OF CANCER WITH CDK12/13 INHIBITORS” (Kinnate Biopharma Inc., priority 2019, published 2023)

Key:
Test in all cases: Radiometric kinase panel
Assay type in all cases: biochemical
[1] = molecular target: T1, PBK (Homo sapiens, UniProt Q96KB5)
T1 construct: purchased ProQinase GmbH (Reaction Biology); host or cells: Sf9 insect cells or E. coli (not specified per kinase)
Method in brief: (§1)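 Activity was measured radiometrically from [gamma-33P]-ATP incorporation into substrate. The kinases were recombinant human GST- or His-tagged proteins, full-length or active fragments, expressed in Sf9 or E. coli. Compound in 10% DMSO was added before the enzyme/substrate mix, which started the reaction.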

[2] = molecular target: T2, CDK5/p25NCK (Homo sapiens, UniProt Q00535)
T2 construct: either as full-length or enzymatically active fragments; purchased ProQinase GmbH (Reaction Biology)
Method in brief: as §1

[3] = molecular target: T3, MAPKAPK3 (Homo sapiens, UniProt Q16644)
T3 construct: either as full-length or enzymatically active fragments; purchased ProQinase GmbH (Reaction Biology)
Method in brief: as §1

[4] = molecular target: T4, CDK19/CycC (Homo sapiens, UniProt Q9BWU1)
T4 construct: either as full-length or enzymatically active fragments; purchased ProQinase GmbH (Reaction Biology); host or cells: Sf9 insect cells or E. coli (not specified per kinase)
Method in brief: as §1

[5] = molecular target: T5, GRK7 (Homo sapiens, UniProt Q8WTQ7)
T5 construct: either as full-length or enzymatically active fragments; purchased ProQinase GmbH (Reaction Biology)
Method in brief: as §1

[6] = molecular target: T6, CDK8/CycC (Homo sapiens, UniProt P49336)
T6 construct: either as full-length or enzymatically active fragments; purchased ProQinase GmbH (Reaction Biology)
Method in brief: as §1

[7] = molecular target: T7, EPHA6 (Homo sapiens, UniProt Q9UF33)
T7 construct: either as full-length or enzymatically active fragments; purchased ProQinase GmbH (Reaction Biology)
Method in brief: as §1

[8] = molecular target: T8, JNK3 (Homo sapiens, UniProt P53779)
T8 construct: either as full-length or enzymatically active fragments; purchased ProQinase GmbH (Reaction Biology)
Method in brief: as §1

[9] = molecular target: T9, RPS6KA6 (Homo sapiens, UniProt Q9UK32)
T9 construct: purchased ProQinase GmbH (Reaction Biology)
Method in brief: as §1

[10] = molecular target: T10, ROCK2 (Homo sapiens, UniProt O75116)
T10 construct: either as full-length or enzymatically active fragments; purchased ProQinase GmbH (Reaction Biology)
Method in brief: as §1

[11] = molecular target: T11, VRK2 (Homo sapiens, UniProt Q86Y07)
T11 construct: either as full-length or enzymatically active fragments; purchased ProQinase GmbH (Reaction Biology); host or cells: Sf9 insect cells or E. coli
Method in brief: as §1

[12] = molecular target: T12, MYLK2 (Homo sapiens, UniProt Q9H1R3)
T12 construct: either as full-length or enzymatically active fragments; purchased ProQinase GmbH (Reaction Biology); host or cells: Sf9 insect cells or E. coli
Method in brief: as §1

[13] = molecular target: T13, BRSK1 (Homo sapiens, UniProt Q8TDC3)
T13 construct: either as full-length or enzymatically active fragments; purchased ProQinase GmbH (Reaction Biology)
Method in brief: as §1

[14] = molecular target: T14, STK25 (Homo sapiens, UniProt O00506)
T14 construct: either as full-length or enzymatically active fragments; purchased ProQinase GmbH (Reaction Biology)
Method in brief: as §1

[15] = molecular target: T15, WNK3 (Homo sapiens, UniProt Q9BYP7)
T15 construct: either as full-length or enzymatically active fragments; purchased ProQinase GmbH (Reaction Biology)
Method in brief: as §1

[16] = molecular target: T16, PIM2 (Homo sapiens, UniProt Q9P1W9)
T16 construct: either as full-length or enzymatically active fragments; purchased ProQinase GmbH (Reaction Biology)
Method in brief: as §1

[17] = molecular target: T17, DDR2 (Homo sapiens, UniProt Q16832)
T17 construct: either as full-length or enzymatically active fragments; purchased ProQinase GmbH (Reaction Biology)
Method in brief: as §1

[18] = molecular target: T18, IKKalpha (Homo sapiens, UniProt O15111)
T18 construct: either as full-length or enzymatically active fragments; purchased ProQinase GmbH (Reaction Biology)
Method in brief: as §1

[19] = molecular target: T19, CLK4 (Homo sapiens, UniProt Q9HAZ1)
T19 construct: purchased ProQinase GmbH (Reaction Biology)
Method in brief: as §1

[20] = molecular target: T20, TTK (Homo sapiens, UniProt P33981)
T20 construct: either as full-length or enzymatically active fragments; purchased ProQinase GmbH (Reaction Biology); host or cells: Sf9 insect cells or E. coli
Method in brief: as §1

[21] = molecular target: T21, TEC (Homo sapiens, UniProt P42680)
T21 construct: either as full-length or enzymatically active fragments; purchased ProQinase GmbH (Reaction Biology)
Method in brief: as §1

[22] = molecular target: T22, PHKG2 (Homo sapiens, UniProt P15735)
T22 construct: either as full-length or enzymatically active fragments; purchased ProQinase GmbH (Reaction Biology)
Method in brief: as §1

[23] = molecular target: T23, VEGFR2 (Homo sapiens, UniProt P35968)
T23 construct: either as full-length or enzymatically active fragments; purchased ProQinase GmbH (Reaction Biology); host or cells: Sf9 insect cells or E. coli
Method in brief: as §1

[24] = molecular target: T24, IRAK1 (Homo sapiens, UniProt P51617)
T24 construct: either as full-length or enzymatically active fragments; purchased ProQinase GmbH (Reaction Biology)
Method in brief: as §1

[25] = molecular target: T25, BUB1B (Homo sapiens, UniProt O60566)
T25 construct: either as full-length or enzymatically active fragments; purchased ProQinase GmbH (Reaction Biology); host or cells: Sf9 insect cells or E. coli
Method in brief: as §1

[26] = molecular target: T26, BTK (Homo sapiens, UniProt Q06187)
T26 construct: purchased ProQinase GmbH (Reaction Biology); host or cells: Sf9 insect cells or E. coli (not specified per kinase)
Method in brief: as §1

[27] = molecular target: T27, S6K (Homo sapiens, UniProt P23443)
T27 construct: either as full-length or enzymatically active fragments; purchased ProQinase GmbH (Reaction Biology); host or cells: Sf9 insect cells or E. coli (not specified per kinase)
Method in brief: as §1

[28] = molecular target: T28, LRRK2 (Homo sapiens, UniProt Q5S007)
T28 construct: either as full-length or enzymatically active fragments; purchased ProQinase GmbH (Reaction Biology); host or cells: Sf9 insect cells or E. coli
Method in brief: as §1

[29] = molecular target: T29, TSF1 (Homo sapiens, UniProt O75716)
T29 construct: either as full-length or enzymatically active fragments; purchased ProQinase GmbH (Reaction Biology)
Method in brief: as §1

[30] = molecular target: T30, ULK2 (Homo sapiens, UniProt Q8IYT8)
T30 construct: either as full-length or enzymatically active fragments; purchased ProQinase GmbH (Reaction Biology)
Method in brief: as §1

[31] = molecular target: T31, CAMK2B (Homo sapiens, UniProt Q13554)
T31 construct: either as full-length or enzymatically active fragments; purchased ProQinase GmbH (Reaction Biology)
Method in brief: as §1

T8 sequence (P53779 whole entry, the tested form may be a part): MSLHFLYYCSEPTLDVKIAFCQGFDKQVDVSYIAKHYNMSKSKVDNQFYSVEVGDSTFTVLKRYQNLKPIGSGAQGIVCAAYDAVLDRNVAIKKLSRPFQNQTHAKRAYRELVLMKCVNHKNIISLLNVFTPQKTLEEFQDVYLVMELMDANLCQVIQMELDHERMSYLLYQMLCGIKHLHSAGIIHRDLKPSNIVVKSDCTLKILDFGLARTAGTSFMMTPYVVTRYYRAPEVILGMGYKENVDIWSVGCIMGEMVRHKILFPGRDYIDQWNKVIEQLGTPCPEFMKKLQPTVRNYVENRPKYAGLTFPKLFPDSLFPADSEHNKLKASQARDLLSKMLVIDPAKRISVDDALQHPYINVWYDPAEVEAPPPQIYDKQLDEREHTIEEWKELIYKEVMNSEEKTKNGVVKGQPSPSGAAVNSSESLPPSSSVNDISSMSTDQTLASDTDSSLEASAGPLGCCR
T11 sequence (Q86Y07 whole entry, the tested form may be a part): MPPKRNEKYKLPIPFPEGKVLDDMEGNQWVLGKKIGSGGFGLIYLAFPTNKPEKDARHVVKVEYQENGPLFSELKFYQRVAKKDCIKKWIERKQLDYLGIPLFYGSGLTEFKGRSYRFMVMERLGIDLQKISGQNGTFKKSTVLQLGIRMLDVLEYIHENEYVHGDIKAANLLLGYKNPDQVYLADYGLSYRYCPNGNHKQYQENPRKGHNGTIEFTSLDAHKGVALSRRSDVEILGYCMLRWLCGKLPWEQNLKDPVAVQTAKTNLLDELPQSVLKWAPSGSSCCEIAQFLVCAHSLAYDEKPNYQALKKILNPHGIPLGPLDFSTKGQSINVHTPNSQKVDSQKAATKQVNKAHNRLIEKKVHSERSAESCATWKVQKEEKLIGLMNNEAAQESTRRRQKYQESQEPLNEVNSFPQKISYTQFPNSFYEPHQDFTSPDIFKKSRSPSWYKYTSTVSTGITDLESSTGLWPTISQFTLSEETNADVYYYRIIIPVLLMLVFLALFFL
T5 sequence (Q8WTQ7 whole entry, the tested form may be a part): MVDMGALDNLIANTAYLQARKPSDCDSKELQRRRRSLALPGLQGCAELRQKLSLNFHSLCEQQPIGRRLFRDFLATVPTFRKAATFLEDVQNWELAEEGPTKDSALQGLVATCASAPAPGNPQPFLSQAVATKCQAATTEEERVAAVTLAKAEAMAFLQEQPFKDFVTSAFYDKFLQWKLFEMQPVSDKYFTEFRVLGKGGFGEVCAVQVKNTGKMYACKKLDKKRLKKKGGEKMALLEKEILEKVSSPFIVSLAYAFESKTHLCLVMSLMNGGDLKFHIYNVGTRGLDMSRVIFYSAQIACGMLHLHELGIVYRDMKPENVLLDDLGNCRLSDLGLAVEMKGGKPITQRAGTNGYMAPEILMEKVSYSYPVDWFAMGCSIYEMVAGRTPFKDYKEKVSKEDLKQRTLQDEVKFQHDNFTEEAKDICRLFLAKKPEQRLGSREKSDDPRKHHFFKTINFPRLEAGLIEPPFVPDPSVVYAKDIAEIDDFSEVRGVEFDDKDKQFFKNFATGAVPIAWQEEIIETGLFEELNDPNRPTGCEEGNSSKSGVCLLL
T9 sequence (Q9UK32 whole entry): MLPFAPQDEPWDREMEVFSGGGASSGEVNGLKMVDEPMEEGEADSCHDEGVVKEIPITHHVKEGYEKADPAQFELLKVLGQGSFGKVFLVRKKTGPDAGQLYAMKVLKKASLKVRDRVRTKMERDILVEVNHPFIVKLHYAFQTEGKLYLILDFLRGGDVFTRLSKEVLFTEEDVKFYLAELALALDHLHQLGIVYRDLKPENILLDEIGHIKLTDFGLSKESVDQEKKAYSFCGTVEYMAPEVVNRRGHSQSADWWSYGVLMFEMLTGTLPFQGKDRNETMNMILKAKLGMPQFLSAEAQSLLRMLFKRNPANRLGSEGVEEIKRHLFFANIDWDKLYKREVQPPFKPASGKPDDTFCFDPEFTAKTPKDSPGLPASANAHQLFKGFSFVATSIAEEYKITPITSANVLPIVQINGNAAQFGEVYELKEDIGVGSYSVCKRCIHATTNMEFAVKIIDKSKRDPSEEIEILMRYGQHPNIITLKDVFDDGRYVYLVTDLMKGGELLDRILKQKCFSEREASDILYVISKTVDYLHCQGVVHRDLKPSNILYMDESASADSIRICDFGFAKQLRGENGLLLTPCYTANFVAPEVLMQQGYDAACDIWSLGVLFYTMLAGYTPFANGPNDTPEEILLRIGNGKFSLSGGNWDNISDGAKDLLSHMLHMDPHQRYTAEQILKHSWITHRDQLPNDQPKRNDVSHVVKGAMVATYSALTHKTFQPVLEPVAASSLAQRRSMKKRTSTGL
T6 sequence (P49336 whole entry, the tested form may be a part): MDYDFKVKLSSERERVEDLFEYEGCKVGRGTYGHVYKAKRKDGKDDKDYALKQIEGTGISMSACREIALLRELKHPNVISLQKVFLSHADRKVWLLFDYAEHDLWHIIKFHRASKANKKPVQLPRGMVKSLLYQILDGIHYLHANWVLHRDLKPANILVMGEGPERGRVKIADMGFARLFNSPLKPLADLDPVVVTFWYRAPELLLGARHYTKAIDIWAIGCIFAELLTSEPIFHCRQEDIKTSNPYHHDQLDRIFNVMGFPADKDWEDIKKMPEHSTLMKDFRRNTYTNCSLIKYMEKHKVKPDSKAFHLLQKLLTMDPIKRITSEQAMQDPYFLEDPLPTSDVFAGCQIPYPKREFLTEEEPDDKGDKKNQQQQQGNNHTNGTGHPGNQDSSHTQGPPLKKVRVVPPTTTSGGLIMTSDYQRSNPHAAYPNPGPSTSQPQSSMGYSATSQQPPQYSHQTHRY
T6 sequence (P24863 whole entry partner, the tested form may be a part): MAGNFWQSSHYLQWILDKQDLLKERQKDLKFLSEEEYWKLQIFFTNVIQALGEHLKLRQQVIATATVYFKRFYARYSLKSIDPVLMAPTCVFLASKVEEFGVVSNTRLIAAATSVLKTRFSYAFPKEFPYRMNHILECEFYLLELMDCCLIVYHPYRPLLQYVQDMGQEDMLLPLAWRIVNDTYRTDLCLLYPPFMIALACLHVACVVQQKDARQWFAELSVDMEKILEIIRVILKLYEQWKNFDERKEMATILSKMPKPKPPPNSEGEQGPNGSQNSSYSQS
T18 sequence (O15111 whole entry, the tested form may be a part): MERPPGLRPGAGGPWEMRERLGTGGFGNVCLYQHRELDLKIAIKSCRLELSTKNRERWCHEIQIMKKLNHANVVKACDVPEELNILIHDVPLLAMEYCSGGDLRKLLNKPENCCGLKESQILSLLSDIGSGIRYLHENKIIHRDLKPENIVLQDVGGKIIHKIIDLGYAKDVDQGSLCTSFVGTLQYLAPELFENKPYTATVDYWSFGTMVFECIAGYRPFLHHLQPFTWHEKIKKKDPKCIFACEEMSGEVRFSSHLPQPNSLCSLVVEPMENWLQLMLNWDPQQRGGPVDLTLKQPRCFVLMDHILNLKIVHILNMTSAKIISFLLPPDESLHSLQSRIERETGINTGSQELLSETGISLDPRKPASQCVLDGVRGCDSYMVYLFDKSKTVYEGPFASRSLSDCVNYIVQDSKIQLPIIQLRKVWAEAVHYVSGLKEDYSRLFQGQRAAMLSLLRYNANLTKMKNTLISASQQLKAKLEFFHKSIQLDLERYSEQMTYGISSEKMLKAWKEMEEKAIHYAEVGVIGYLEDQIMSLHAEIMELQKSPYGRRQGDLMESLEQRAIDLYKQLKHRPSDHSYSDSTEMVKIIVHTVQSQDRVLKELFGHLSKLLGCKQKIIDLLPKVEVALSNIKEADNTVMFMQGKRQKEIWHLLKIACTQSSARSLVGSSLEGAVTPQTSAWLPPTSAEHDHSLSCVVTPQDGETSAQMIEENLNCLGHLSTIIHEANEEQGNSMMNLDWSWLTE
T19 sequence (Q9HAZ1 whole entry): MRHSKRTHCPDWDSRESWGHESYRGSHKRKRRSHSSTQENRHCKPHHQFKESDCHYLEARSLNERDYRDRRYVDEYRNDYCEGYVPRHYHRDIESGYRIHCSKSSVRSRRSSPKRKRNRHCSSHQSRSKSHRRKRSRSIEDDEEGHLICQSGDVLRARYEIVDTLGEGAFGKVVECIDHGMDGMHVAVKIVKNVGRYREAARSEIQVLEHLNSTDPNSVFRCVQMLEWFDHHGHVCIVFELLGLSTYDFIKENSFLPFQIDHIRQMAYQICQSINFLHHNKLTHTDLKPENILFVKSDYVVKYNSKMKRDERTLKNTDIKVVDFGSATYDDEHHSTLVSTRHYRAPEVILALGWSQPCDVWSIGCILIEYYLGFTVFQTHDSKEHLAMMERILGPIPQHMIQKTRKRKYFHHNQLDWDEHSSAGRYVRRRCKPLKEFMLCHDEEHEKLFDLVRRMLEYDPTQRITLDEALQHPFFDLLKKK
T26 sequence (Q06187 whole entry): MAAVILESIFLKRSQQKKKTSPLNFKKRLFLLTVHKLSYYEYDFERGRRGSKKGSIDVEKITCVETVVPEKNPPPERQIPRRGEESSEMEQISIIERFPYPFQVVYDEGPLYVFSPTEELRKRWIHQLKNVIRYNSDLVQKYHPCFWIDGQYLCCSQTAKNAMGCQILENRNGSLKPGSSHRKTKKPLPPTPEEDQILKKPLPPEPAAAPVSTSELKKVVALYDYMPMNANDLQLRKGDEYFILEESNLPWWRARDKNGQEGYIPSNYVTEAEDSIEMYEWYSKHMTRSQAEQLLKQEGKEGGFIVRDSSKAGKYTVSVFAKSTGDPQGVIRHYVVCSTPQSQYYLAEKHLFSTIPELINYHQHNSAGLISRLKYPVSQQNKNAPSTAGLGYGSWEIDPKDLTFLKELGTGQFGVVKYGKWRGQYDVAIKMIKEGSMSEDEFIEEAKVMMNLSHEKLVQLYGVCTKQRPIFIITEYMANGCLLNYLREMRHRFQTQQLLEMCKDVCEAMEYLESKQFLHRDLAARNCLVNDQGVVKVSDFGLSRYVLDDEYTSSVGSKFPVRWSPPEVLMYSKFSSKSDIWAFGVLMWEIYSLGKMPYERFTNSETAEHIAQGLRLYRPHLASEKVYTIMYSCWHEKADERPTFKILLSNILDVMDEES

## C=CC(=O)Nc1ccc(C(=O)N2CC[C@@H](Nc3ncc(C#N)cn3)C2)cc1 [Compound 4, (R)-N-(4-(3-((5-cyanopyrimidin-2-yl)amino)pyrrolidine-1-carbonyl)phenyl)acrylamide]
[1]
  inhibition at 1 µM: 0%
[2]
  inhibition at 1 µM: 3%
[3]
  inhibition at 1 µM: 8%
[4]
  inhibition at 1 µM: 10%
[5]
  inhibition at 1 µM: -5%
[6]
  inhibition at 1 µM: 3%
[7]
  inhibition at 1 µM: 5%
[8]
  inhibition at 1 µM: -4%
[9]
  inhibition at 1 µM: -3%
[10]
  inhibition at 1 µM: 19%
[11]
  inhibition at 1 µM: -16%
[12]
  inhibition at 1 µM: 12%
[13]
  inhibition at 1 µM: -4%
[14]
  inhibition at 1 µM: 7%
[15]
  inhibition at 1 µM: -6%
[16]
  inhibition at 1 µM: 3%
[17]
  inhibition at 1 µM: -9%
[18]
  inhibition at 1 µM: -8%
[19]
  inhibition at 1 µM: -2%
[20]
  inhibition at 1 µM: 12%
[21]
  inhibition at 1 µM: 5%
[22]
  inhibition at 1 µM: 2%
[23]
  inhibition at 1 µM: 12%
[24]
  inhibition at 1 µM: 2%
[25]
  inhibition at 1 µM: 13%
[26]
  inhibition at 1 µM: 1%
[27]
  inhibition at 1 µM: 9%
[28]
  inhibition at 1 µM: -14%
[29]
  inhibition at 1 µM: 6%
[30]
  inhibition at 1 µM: 3%
[31]
  inhibition at 1 µM: -12%
